From patent US20080275105A1, “Selective Muscle Relaxant and Pharmaceutical Compositions” (UNIVERSIDADE FEDERAL DO RIO DE JANEIROUFRJ, priority 2004, published 2008)

Experiments:
[1] = system: aorta rings with no preserved endothelium; assay: Phenylephrine-induced contracture in aorta rings without endothelium; type: cell-based, rat; details: for IC50: Rattus norvegicus, phenylephrine 10 μM, without endothelium, six experiments, read-out: CI50 (MM) Average ± SEM
Description: (§1) Once the experiments have been carried out, the findings were subject to statistical analyses being expressed in average ±SEM as a percentage of the control value, and graphs were drawn up using the Sigma Plot 5.0 program to represent the data obtained. For the statistical analysis of the effects on the different muscle tissues, the difference was assessed among the concentrations of the same derivative, using the “t” Student test. In order to ascertain the difference among the derivatives, the one-way ANOVA test was used. The differences were considered as significant for p<0.05. The Cl50 was expressed as an average ±SEM of the values obtained for each experiment through non-linear regression based on the y=yo+ae^−bx equation.
Male Wistar rats weighing between 240-280 grams were sacrificed through dislocation of the cervical column under anesthesia using ethyl ether. The aorta artery was removed and transferred to a Petri dish containing modified Tyrode's solution whose composition is described in Table 3 below, where the vessel was cleaned and the connective tissue was removed. According to the scheduled Experiment Protocol, the vascular endothelium was removed mechanically with the assistance of a polyethylene rod. The artery was divided into rings with a width of 2-3 mm. Two hooks were placed in the wall of the vessel in order to record the tension generated by the muscle in a transversal direction. To do so, one of the hooks was tied to a fixed point in the chamber and the other to a power transducer (FT 03) for recording the isometric tension. The tension generated by the muscle was transformed into a digitized electric signal (Digidata 1322A) and stored in a computer for subsequent analysis using the Axoscope 8.0 program (Axon Instruments, Inc). The chamber was filled with Krebs solution, oxygenated and kept at a temperature of 37° C.
After stabilizing the preparation, approximately 120 minutes, the Experiment Protocol began. Initially, in order to identify the presence or absence of the vascular endothelium, the preparation was exposed to phenylephrine (10 μM) and when the contracture in response to this substance was stabilized, acetylcholine (10 μM) was added to the nutrient solution. Relaxation of over 80% in response to the acetylcholine indicated the full integrity of the endothelium and relaxation of less than 10% indicated the absence of endothelium. The tissues in which the relaxation intensity fell between >10% and <80% were discarded. In order to investigate the vasodilator effect of the different L294 analogs, they were added to the experiment chambers in rising concentration after the contracture stabilization of the vessel induced by phenylephrine. The tension registered after treatment with each of the L294 analog concentrations was normalized as a function of the amplitude of the contracture triggered by phenylephrine. For the purpose of comparing the potency of some of the L294 analogs, the Cl50 was determined for each experiment using the y=yo+ae^−bx equation and their mean was used for the statistical analysis.
The importance of the presence of vascular endothelium in the vasodilatory action of the L294 analogs was assessed in experiments in which these cells were removed mechanically. […] When the findings of the experiments without the endothelium were analyzed as a whole, the absence of the L790 effect was confirmed. […] The maximum relaxation caused by the L787 and L789 analogs was less than 50% of the control, and the other analogs caused relaxation in the following decreasing order of efficacy: L785>L788>L786. Once again, attention is drawn to the marked efficiency of the L785 and L788 analogs.

tracheal rings of a rat = assay: Acetylcholine-induced contracture of trachea rings; type: cell-based; details: acetylcholine 10 μM; for muscle relaxation effect on trachea rings: cumulative concentrations up to 200 μM, result in words
Description: A preparation of trachea rings is used for observing the probable action of these powerful vasodilators in other smooth musculature tissues. FIG. 12 presents the typical record of the acetylcholine-induced trachea rings contracture (Ach, 10 μM) followed by exposure to rising cumulative concentrations of the L785 derivative up to 200 μM. A dose-dependent reduction may be noted in the amplitude of the acetylcholine-induced contracture.
The same protocol was used for the L786 derivative and the solvent (FIG. 13).

[2] = system: left ventricle bundles of a rat heart; assay: Isometric tension in ventricular bundles; type: cell-based
Description: as §1
After anesthesia with ethyl ether, male Wistar rats weighing between 240-280 grams were sacrificed through cervical dislocation. The heart was removed rapidly and the papillary muscle and the ventricular bundles were dissected in Tyrode's solution, whose composition is given in Table 2 below, at room temperature. The muscles were placed in vertical chambers with a capacity of 10 mL and fixed at their extremities: the lower portion to a hook located in the stimulation electrode fixation rod and the upper portion connected to a power transducer (Grass FT03) for recording the muscle twitches.
The muscles were stimulated electrically with supra-maximum voltage (50-60 V) through a stimulator (Grass S88) at a frequency of 1.0 Hz. The signals captured by the transducer were amplified (Cyberamp 380, Axon Instruments) and the isometric tension was digitized (Digidata 1322A, Axon Instruments) and stored on a computer. The screening and analysis of the experiment was handled through the Axoscope 8.0 program (Axon Instruments) (Sudo & cols., 2001). The chamber solution was bubbled continuously with a carbogenic mixture (95% O2/5% CO2) and kept at a temperature of 37° C.
After the stabilization of the muscle twitches (approximately 30 min) the records were carried out in the absence (control) and presence of rising concentrations (10 to 100 μM) of the different L294 analogs, diluted in DMSO. The records were carried out in pairs (two papillary and two ventricle) thus allowing the control experiments to be carried out in one of the pairs, meaning with rising quantities of DMSO equivalent to those used to dilute the substances. The reversibility of the effect of the substances was investigated at the end of each experiment, noting the recovery of the muscle twitches after bathing the preparation with Tyrode's solution.

[3] = system: extensor digitorium longus (EDL) muscle; assay: Electrically induced twitch amplitude in fast-fiber skeletal muscle (EDL); type: cell-based, mice
Description: Male mice weighing 22-28 g were sacrificed through cervical dislocation and the extensor digitorium longus (EDL) and soleus (SOL) muscles were dissected in a Ringer-Krebs solution, whose composition is given in Table 9, at room temperature. The muscles were placed in vertical chambers with a capacity of 10 ml, and were fixed by their ends to the stimulation electrode fixation rod and a power transducer (Grass FT03) for registering muscle twitches. The chamber solution was bubbled continuously with a carbogenic mixture (95% O2/5% CO2) and kept at a temperature of 37° C. The muscles were stimulated electrically through a stimulator (Grass S88) at a frequency of 0.2 Hz, at 37° C. After the stabilization of the muscle twitches (±30 minutes) a control record was taken in the absence of the drug, and subsequently rising concentrations (from 10 μM to 200 μM) of the L294 derivatives were added every ten minutes, diluted in DMSO. […] The signals recorded by the transducer were amplified (Cyberamp) and the isometric tension was digitized (Digidata 1322A) and stored on a computer. The screening and analysis of the experiment was handled through the use of the Axoscope 8.0 program. (Zapata-Sudo, 2003).
A measurement of the electrically-induced twitch amplitude was selected to assist the effects of the L294 analogs on the skeletal muscle inotropism. One muscle consisting of fast fibers (extensor digitorium longus-EDL) and the other of slow fibers (soleus-SOL) taken from mice were selected for this purpose. Differences in the timing of the twitches between the fast and slow muscles are shown at the faster recording speed. […] Washing the preparation with Krebs solution caused a partial reversion of the effects induced by the L786.

Compound: CN(/N=C/c1cccs1)C(=O)c1ccc2c(c1)OCO2 [L785, 1,3-Benzodioxol-5-carboxylic acid, N-methyl-N′-[1-thiophene-2-yl-meth-(E)-ylidene]-hydrazide]
- relaxation of phenylephrine contracture, without endothelium ([1]; 100 μM, result in words): relaxation was almost total
- IC50 [1]: 18.5 ± 3.6 µM
- muscle relaxation effect on trachea rings (tracheal rings of a rat): significant dose-dependent muscle relaxation effect
- muscular response in ventricular bundles ([2]; concentration not given, alterations not greater than 10%): 96.5±3.8 % of the control
- EDL twitch amplitude 200 μM (% of the control) [3]: 31.6±4.7 % of the control
- EDL twitch amplitude 30 min-Washing (% of the control) ([3]; 30 min after washing): 36.4 ± 4.5 % of the control

Compound: O=C(c1ccc2c(c1)OCO2)N(Cc1ccccc1)/N=C/c1cccs1 [L786, 1,3-Benzodioxol-5-carboxylic acid, N-benzyl-N′-[1-thiophene-2-yl-meth-(E)-ylidene]-hydrazide]
- IC50 [1]: 86.2 ± 7.1 µM
- amplitude of the acetylcholine-induced contracture of trachea rings (tracheal rings of a rat; 200 μM): 25.3±12.1 % of the control
- muscle relaxation effect on trachea rings (tracheal rings of a rat): The same effect was not observed
- muscle twitches / contractility in ventricular bundles ([2]; 100 μM): 79.9±10.6 % of the control
- effect on EDL muscle twitches ([3]; 50 μM, result in words): reduction in the amplitude and an extension in the duration of the muscle twitches
- EDL twitch amplitude 200 μM (% of the control) [3]: 28.7±9.9 % of the control
